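Compound exposure: 48 hours, 5 concentrations, 96-well plates. GI50 marks 50% less growth. TGI denotes the concentration required for complete inhibition of growth.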
tested on: OVCAR-3 ovarian; assay: inhibition of tumour cell growth, NCI panel, 48 h

| SMILES | TGI |
| --- | --- |
| CCCCCCCCCCCCCC(=O)OCC(C[As](=O)(O)O)OC(=O)CCCCCCCCCCCCC (stereo not drawn) | > 100 µM |
| O=C(CCN(C(=O)O)S(=O)(=O)c1ccc(NC(=O)c2ccccc2)cc1)Nc1ccccc1 | > 100 µM |
| N#CN/C(N)=N/CO | > 100 µM |

tested on: SK-MEL-5 melanoma; assay: inhibition of tumour cell growth, NCI panel, 48 h

| SMILES | GI50 | TGI |
| --- | --- | --- |
| N.N.N.N.O=C([O-])CCl.O=C([O-])CCl.[Co+3].[O-][Cl+3]([O-])([O-])[O-] | > 100 µM | > 100 µM |
| COC(=O)C1=C(OC(=O)/C(=C/c2ccc(Cl)cc2)c2ccc(Cl)cc2)C(C(=O)OC)[C@@]2(O)[C@@H](C(=O)OC)[C@H](C)C[C@@H]1[C@@H]2C(=O)OC (stereo partly drawn) |  | > 100 µM |
| CC(C)CCC1CC2C(=O)N(c3ccccc3)C(=O)C2c2[nH]c3ccccc3c21 (stereo not drawn) |  | 13 µM |
| CCCCCCCCCCCCCC(=O)OCC(C[As](=O)(O)O)OC(=O)CCCCCCCCCCCCC (stereo not drawn) |  | > 100 µM |
| O=C(CCN(C(=O)O)S(=O)(=O)c1ccc(NC(=O)c2ccccc2)cc1)Nc1ccccc1 |  | > 100 µM |
| N#CN/C(N)=N/CO |  | > 100 µM |

tested on: U251 CNS; assay: inhibition of tumour cell growth, NCI panel, 48 h

| SMILES | GI50 | TGI |
| --- | --- | --- |
| N.N.N.N.O=C([O-])CCl.O=C([O-])CCl.[Co+3].[O-][Cl+3]([O-])([O-])[O-] | > 100 µM | > 100 µM |
| COC(=O)C1=C(OC(=O)/C(=C/c2ccc(Cl)cc2)c2ccc(Cl)cc2)C(C(=O)OC)[C@@]2(O)[C@@H](C(=O)OC)[C@H](C)C[C@@H]1[C@@H]2C(=O)OC (stereo partly drawn) |  | > 100 µM |
| CC(C)CCC1CC2C(=O)N(c3ccccc3)C(=O)C2c2[nH]c3ccccc3c21 (stereo not drawn) |  | 3.5 µM |
| CCCCCCCCCCCCCC(=O)OCC(C[As](=O)(O)O)OC(=O)CCCCCCCCCCCCC (stereo not drawn) |  | > 100 µM |
| O=C(CCN(C(=O)O)S(=O)(=O)c1ccc(NC(=O)c2ccccc2)cc1)Nc1ccccc1 |  | > 100 µM |
| N#CN/C(N)=N/CO |  | > 90.2 µM |

tested on: KM20L2 colon; assay: inhibition of tumour cell growth, NCI panel, 48 h

| SMILES | GI50 | TGI |
| --- | --- | --- |
| N.N.N.N.O=C([O-])CCl.O=C([O-])CCl.[Co+3].[O-][Cl+3]([O-])([O-])[O-] | > 100 µM | > 100 µM |
| CCCCCCCCCCCCCC(=O)OCC(C[As](=O)(O)O)OC(=O)CCCCCCCCCCCCC (stereo not drawn) |  | > 100 µM |
| O=C(CCN(C(=O)O)S(=O)(=O)c1ccc(NC(=O)c2ccccc2)cc1)Nc1ccccc1 |  | > 100 µM |
| N#CN/C(N)=N/CO |  | > 100 µM |

tested on: UACC-257 melanoma; assay: inhibition of tumour cell growth, NCI panel, 48 h

| SMILES | GI50 | TGI |
| --- | --- | --- |
| N.N.N.N.O=C([O-])CCl.O=C([O-])CCl.[Co+3].[O-][Cl+3]([O-])([O-])[O-] | > 100 µM | > 100 µM |
| COC(=O)C1=C(OC(=O)/C(=C/c2ccc(Cl)cc2)c2ccc(Cl)cc2)C(C(=O)OC)[C@@]2(O)[C@@H](C(=O)OC)[C@H](C)C[C@@H]1[C@@H]2C(=O)OC (stereo partly drawn) |  | > 100 µM |
| CCCCCCCCCCCCCC(=O)OCC(C[As](=O)(O)O)OC(=O)CCCCCCCCCCCCC (stereo not drawn) |  | > 100 µM |
| O=C(CCN(C(=O)O)S(=O)(=O)c1ccc(NC(=O)c2ccccc2)cc1)Nc1ccccc1 |  | > 86.3 µM |
| N#CN/C(N)=N/CO |  | > 100 µM |

tested on: M14 melanoma; assay: inhibition of tumour cell growth, NCI panel, 48 h

| SMILES | GI50 | TGI |
| --- | --- | --- |
| N.N.N.N.O=C([O-])CCl.O=C([O-])CCl.[Co+3].[O-][Cl+3]([O-])([O-])[O-] | > 100 µM | > 100 µM |
| COC(=O)C1=C(OC(=O)/C(=C/c2ccc(Cl)cc2)c2ccc(Cl)cc2)C(C(=O)OC)[C@@]2(O)[C@@H](C(=O)OC)[C@H](C)C[C@@H]1[C@@H]2C(=O)OC (stereo partly drawn) |  | > 100 µM |
| CC(C)CCC1CC2C(=O)N(c3ccccc3)C(=O)C2c2[nH]c3ccccc3c21 (stereo not drawn) |  | 4.04 µM |
| CCCCCCCCCCCCCC(=O)OCC(C[As](=O)(O)O)OC(=O)CCCCCCCCCCCCC (stereo not drawn) |  | > 100 µM |
| O=C(CCN(C(=O)O)S(=O)(=O)c1ccc(NC(=O)c2ccccc2)cc1)Nc1ccccc1 |  | > 100 µM |
| N#CN/C(N)=N/CO |  | > 100 µM |

tested on: NCI-H460 lung; assay: inhibition of tumour cell growth, NCI panel, 48 h

| SMILES | GI50 | TGI |
| --- | --- | --- |
| N.N.N.N.O=C([O-])CCl.O=C([O-])CCl.[Co+3].[O-][Cl+3]([O-])([O-])[O-] | > 100 µM | > 100 µM |
| COC(=O)C1=C(OC(=O)/C(=C/c2ccc(Cl)cc2)c2ccc(Cl)cc2)C(C(=O)OC)[C@@]2(O)[C@@H](C(=O)OC)[C@H](C)C[C@@H]1[C@@H]2C(=O)OC (stereo partly drawn) |  | > 100 µM |
| CC(C)CCC1CC2C(=O)N(c3ccccc3)C(=O)C2c2[nH]c3ccccc3c21 (stereo not drawn) |  | 12.2 µM |
| CCCCCCCCCCCCCC(=O)OCC(C[As](=O)(O)O)OC(=O)CCCCCCCCCCCCC (stereo not drawn) |  | > 100 µM |
| O=C(CCN(C(=O)O)S(=O)(=O)c1ccc(NC(=O)c2ccccc2)cc1)Nc1ccccc1 |  | > 83.6 µM |
| N#CN/C(N)=N/CO |  | > 100 µM |

tested on: RXF 393 renal; assay: inhibition of tumour cell growth, NCI panel, 48 h

| SMILES | TGI |
| --- | --- |
| COC(=O)C1=C(OC(=O)/C(=C/c2ccc(Cl)cc2)c2ccc(Cl)cc2)C(C(=O)OC)[C@@]2(O)[C@@H](C(=O)OC)[C@H](C)C[C@@H]1[C@@H]2C(=O)OC (stereo partly drawn) | > 100 µM |
| CC(C)CCC1CC2C(=O)N(c3ccccc3)C(=O)C2c2[nH]c3ccccc3c21 (stereo not drawn) | 8.01 µM |
| CCCCCCCCCCCCCC(=O)OCC(C[As](=O)(O)O)OC(=O)CCCCCCCCCCCCC (stereo not drawn) | > 100 µM |
| O=C(CCN(C(=O)O)S(=O)(=O)c1ccc(NC(=O)c2ccccc2)cc1)Nc1ccccc1 | > 100 µM |
| N#CN/C(N)=N/CO | 43.5 µM |

tested on: MDA-MB-435; assay: inhibition of tumour cell growth, NCI panel, 48 h

| SMILES | TGI |
| --- | --- |
| COC(=O)C1=C(OC(=O)/C(=C/c2ccc(Cl)cc2)c2ccc(Cl)cc2)C(C(=O)OC)[C@@]2(O)[C@@H](C(=O)OC)[C@H](C)C[C@@H]1[C@@H]2C(=O)OC (stereo partly drawn) | > 100 µM |
